Source: PubChem BioAssay AID1918936 (Molecular Pharmacology Branch, DTP, NCI, 2023)
Blank lines part the entries; values can stand above or below the molecule they belong to.

Test system: 349418-098-R-PDC complex spheroid viability
Experiment: Anticancer human tumor 349418-098-R-PDC patient-derived lung adenocarcinoma cell line growth inhibition
Conditions: for viability, T/C: stronger effect = lower value
Outline: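 Multicellular complex spheroids of tumor cells with human endothelial cells (HUVEC) and mesenchymal stem cells; the LSD1 inhibitor iadademstat was combined with standard-of-care or investigational agents. Top concentration at or near clinical Cmax, half-log dilutions; final DMSO ≤0.25%.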

[1] = curve of first compound, second compound 0.1 µM
[2] = curve of first compound, second compound 0.316 µM
[3] = curve of first compound, second compound 1 µM
[4] = curve of first compound, second compound 3.16 µM
[5] = curve of first compound, second compound 10 µM
[6] = second compound 0.1 µM, first compound 0.0316 µM
[7] = second compound 0.1 µM, first compound 0.1 µM
[8] = second compound 0.1 µM, first compound 0.316 µM
[9] = second compound 0.1 µM, first compound 1 µM
[10] = second compound 0.1 µM, first compound 3.16 µM
[11] = second compound 0.1 µM, first compound 10 µM
[12] = second compound 0.316 µM, first compound 0.0316 µM
[13] = second compound 0.316 µM, first compound 0.1 µM
[14] = second compound 0.316 µM, first compound 0.316 µM
[15] = second compound 0.316 µM, first compound 1 µM
[16] = second compound 0.316 µM, first compound 3.16 µM
[17] = second compound 0.316 µM, first compound 10 µM
[18] = second compound 1 µM, first compound 0.0316 µM
[19] = second compound 1 µM, first compound 0.1 µM
[20] = second compound 1 µM, first compound 0.316 µM
[21] = second compound 1 µM, first compound 1 µM
[22] = second compound 1 µM, first compound 3.16 µM
[23] = second compound 1 µM, first compound 10 µM
[24] = second compound 3.16 µM, first compound 0.0316 µM
[25] = second compound 3.16 µM, first compound 0.1 µM
[26] = second compound 3.16 µM, first compound 0.316 µM
[27] = second compound 3.16 µM, first compound 1 µM
[28] = second compound 3.16 µM, first compound 3.16 µM
[29] = second compound 3.16 µM, first compound 10 µM
[30] = second compound 10 µM, first compound 0.0316 µM
[31] = second compound 10 µM, first compound 0.1 µM
[32] = second compound 10 µM, first compound 0.316 µM
[33] = second compound 10 µM, first compound 1 µM
[34] = second compound 10 µM, first compound 3.16 µM
[35] = second compound 10 µM, first compound 10 µM
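Further: spheroids exposed to agents for seven days before readout.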
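Wherever viability, T/C is given: 100% = DMSO vehicle control wells.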

SMILES: CC1COCCN1c1cc(C2(S(C)(=N)=O)CC2)nc(-c2ccnc3[nH]ccc23)n1 (configuration not stated) + NC1CCC(NC2CC2c2ccccc2)CC1
- IC50 [1]: 0.371 µM
- IC50 [2]: 0.508 µM
- IC50 [3]: 0.487 µM
- IC50 [4]: 0.361 µM
- IC50 [5]: 0.433 µM
- viability, T/C [6]: 115%
- viability, T/C [7]: 115%
- viability, T/C [8]: 55.5%
- viability, T/C [9]: 16.1%
- viability, T/C [10]: 11%
- viability, T/C [11]: 8.02%
- viability, T/C [12]: 120%
- viability, T/C [13]: 101%
- viability, T/C [14]: 72.5%
- viability, T/C [15]: 19.6%
- viability, T/C [16]: 9.52%
- viability, T/C [17]: 8.34%
- viability, T/C [18]: 114%
- viability, T/C [19]: 104%
- viability, T/C [20]: 68.6%
- viability, T/C [21]: 19.2%
- viability, T/C [22]: 10.2%
- viability, T/C [23]: 7.6%
- viability, T/C [24]: 116%
- viability, T/C [25]: 113%
- viability, T/C [26]: 53.6%
- viability, T/C [27]: 18.1%
- viability, T/C [28]: 10.3%
- viability, T/C [29]: 7.61%
- viability, T/C [30]: 107%
- viability, T/C [31]: 87.3%
- viability, T/C [32]: 65.7%
- viability, T/C [33]: 15.8%
- viability, T/C [34]: 9.23%
- viability, T/C [35]: 5.82%

SMILES: CC(C)c1c(-c2ccccc2)nc2c(C#N)c[nH]n2c1=O + NC1CCC(NC2CC2c2ccccc2)CC1
- IC50 [1]: > 10 µM
- IC50 [2]: > 10 µM
- IC50 [3]: > 10 µM
- IC50 [4]: > 10 µM
- IC50 [5]: > 10 µM
- viability, T/C [6]: 108%
- viability, T/C [7]: 112%
- viability, T/C [8]: 93.7%
- viability, T/C [9]: 105%
- viability, T/C [10]: 104%
- viability, T/C [11]: 88.1%
- viability, T/C [12]: 108%
- viability, T/C [13]: 110%
- viability, T/C [14]: 113%
- viability, T/C [15]: 104%
- viability, T/C [16]: 101%
- viability, T/C [17]: 98.8%
- viability, T/C [18]: 104%
- viability, T/C [19]: 113%
- viability, T/C [20]: 108%
- viability, T/C [21]: 100%
- viability, T/C [22]: 104%
- viability, T/C [23]: 93.8%
- viability, T/C [24]: 96.4%
- viability, T/C [25]: 92.5%
- viability, T/C [26]: 113%
- viability, T/C [27]: 108%
- viability, T/C [28]: 102%
- viability, T/C [29]: 87.3%
- viability, T/C [30]: 101%
- viability, T/C [31]: 84.1%
- viability, T/C [32]: 108%
- viability, T/C [33]: 93.6%
- viability, T/C [34]: 86.4%
- viability, T/C [35]: 78.7%

- IC50 (compound alone, run of 02/01/2022): > 10 µM
SMILES: NC1CC1c1ccc(-c2cccc(O)c2)cc1 (configuration not stated)
- viability, T/C (compound 1 µM): 113% [middle of 25 runs]

SMILES: O=C(C=Cc1cccc(S(=O)(=O)Nc2ccccc2)c1)NO + NC1CCC(NC2CC2c2ccccc2)CC1
- IC50 [1]: 0.0881 µM
- IC50 [2]: 0.0945 µM
- IC50 [3]: 0.121 µM
- IC50 [4]: 0.112 µM
- IC50 [5]: 0.0837 µM
- viability, T/C (second compound 0.1 µM, first compound 0.00949 µM): 100%
- viability, T/C (second compound 0.1 µM, first compound 0.03 µM): 80.5%
- viability, T/C (second compound 0.1 µM, first compound 0.0949 µM): 48.6%
- viability, T/C (second compound 0.1 µM, first compound 0.3 µM): 18.1%
- viability, T/C (second compound 0.1 µM, first compound 0.949 µM): 4.19%
- viability, T/C (second compound 0.1 µM, first compound 3 µM): 1.29%
- viability, T/C (second compound 0.316 µM, first compound 0.00949 µM): 105%
- viability, T/C (second compound 0.316 µM, first compound 0.03 µM): 80.4%
- viability, T/C (second compound 0.316 µM, first compound 0.0949 µM): 53.1%
- viability, T/C (second compound 0.316 µM, first compound 0.3 µM): 18.7%
- viability, T/C (second compound 0.316 µM, first compound 0.949 µM): 3.88%
- viability, T/C (second compound 0.316 µM, first compound 3 µM): 1.5%
- viability, T/C (second compound 1 µM, first compound 0.00949 µM): 97.1%
- viability, T/C (second compound 1 µM, first compound 0.03 µM): 85.2%
- viability, T/C (second compound 1 µM, first compound 0.0949 µM): 58.5%
- viability, T/C (second compound 1 µM, first compound 0.3 µM): 20.8%
- viability, T/C (second compound 1 µM, first compound 0.949 µM): 3.93%
- viability, T/C (second compound 1 µM, first compound 3 µM): 1.07%
- viability, T/C (second compound 3.16 µM, first compound 0.00949 µM): 102%
- viability, T/C (second compound 3.16 µM, first compound 0.03 µM): 88.3%
- viability, T/C (second compound 3.16 µM, first compound 0.0949 µM): 56.5%
- viability, T/C (second compound 3.16 µM, first compound 0.3 µM): 17%
- viability, T/C (second compound 3.16 µM, first compound 0.949 µM): 3.94%
- viability, T/C (second compound 3.16 µM, first compound 3 µM): 0.93%
- viability, T/C (second compound 10 µM, first compound 0.00949 µM): 96.4%
- viability, T/C (second compound 10 µM, first compound 0.03 µM): 87.3%
- viability, T/C (second compound 10 µM, first compound 0.0949 µM): 44.3%
- viability, T/C (second compound 10 µM, first compound 0.3 µM): 13.2%
- viability, T/C (second compound 10 µM, first compound 0.949 µM): 3.61%
- viability, T/C (second compound 10 µM, first compound 3 µM): 0.5%
